In patent US20180155344A1, “TRICYCLIC PIPERIDINE COMPOUNDS” (ACTELION PHARMACEUTICALS LTD, priority 2015, published 2018):

Target: T1, human TPH1 (Homo sapiens, UniProt P17752)
T1 sequence (P17752 1-444): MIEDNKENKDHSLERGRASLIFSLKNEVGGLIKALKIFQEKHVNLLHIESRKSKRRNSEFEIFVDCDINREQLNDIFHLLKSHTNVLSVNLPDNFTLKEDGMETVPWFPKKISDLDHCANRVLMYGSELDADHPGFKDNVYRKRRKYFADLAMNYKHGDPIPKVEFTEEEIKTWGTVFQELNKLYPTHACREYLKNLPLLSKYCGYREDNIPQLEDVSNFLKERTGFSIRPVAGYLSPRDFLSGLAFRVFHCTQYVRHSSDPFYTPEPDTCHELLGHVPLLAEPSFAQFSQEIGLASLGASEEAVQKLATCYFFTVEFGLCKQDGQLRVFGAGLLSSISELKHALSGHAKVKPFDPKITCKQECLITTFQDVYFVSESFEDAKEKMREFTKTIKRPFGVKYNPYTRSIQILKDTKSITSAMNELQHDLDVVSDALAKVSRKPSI
Experiment: biochemical
Method in brief: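 Inhibition is derived from 5-hydroxy-L-tryptophan fluorescence (540 nm emission, 300 nm excitation) after perchloric acid stop, relative to DMSO vehicle. Recombinant full-length human enzyme (40-80 nM) reacts with 40 μM tryptophan plus 100 μM methyltetrahydropterin, pH 7.6 Tris/DTT/catalase, 15° C, 60 min.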

SMILES | IC50 [nM]
COc1ccc(C2c3c(nc4cc(C(F)(F)F)ccn34)CCN2C(=O)COc2ccc(CN3CCOCC3)cc2Cl)cn1 (centres unmarked) [Example 3.6.2, 2-(2-chloro-4-(morpholinomethyl)phenoxy)-1-(1-(6-methoxypyridin-3-yl)-7-(trifluoromethyl)-3,4-dihydroimidazo[1,2-a:5,4-c′]dipyridin-2(1H)-yl)ethan-1-one] | 50
CCOc1ccc(C2c3c(nc4cc(C(F)(F)F)ccn34)CCN2C(=O)COc2ccc(CN3CCOCC3)cc2Cl)cn1 (centres unmarked) [Example 3.7.1, 2-(2-chloro-4-(morpholinomethyl)phenoxy)-1-(1-(6-ethoxypyridin-3-yl)-7-(trifluoromethyl)-3,4-dihydroimidazo[1,2-a:5,4-c′]dipyridin-2(1H)-yl)ethan-1-one] | 18
O=C(COc1ccc(CN2CCOCC2)cc1Cl)N1CCc2nc3cc(C(F)(F)F)ccn3c2C1c1ccc(OCC(F)(F)F)nc1 (centres unmarked) [Example 3.8.1, 2-(2-chloro-4-(morpholinomethyl)phenoxy)-1-(1-(6-(2,2,2-trifluoroethoxy)pyridin-3-yl)-7-(trifluoromethyl)-3,4-dihydroimidazo[1,2-a:5,4-c′]dipyridin-2(1H)-yl)ethan-1-one] | 86
COc1ccc(C2c3c(nc4cc(C(F)(F)F)ccn34)CCN2C(=O)COc2ccc3ccccc3c2)cc1O (centres unmarked) [Example 3.9.1, 1-(1-(3-hydroxy-4-methoxyphenyl)-7-(trifluoromethyl)-3,4-dihydroimidazo[1,2-a:5,4-c′]dipyridin-2(1H)-yl)-2-(naphthalen-2-yloxy)ethan-1-one] | 45
Cc1ccc(C2c3c(nc4cc(C(F)(F)F)ccn34)CCN2C(=O)COc2ccc3ccccc3c2)cc1C (centres unmarked) [Example 3.10.1, 1-(1-(3,4-dimethylphenyl)-7-(trifluoromethyl)-3,4-dihydroimidazo[1,2-a:5,4-c′]dipyridin-2(1H)-yl)-2-(naphthalen-2-yloxy)ethan-1-one] | 33
Cc1ccc(C2c3c(nc4cc(C(F)(F)F)ccn34)CCN2C(=O)COc2ccc(CN3CCOCC3)cc2Cl)cc1C (centres unmarked) [Example 3.10.2, 2-(2-chloro-4-(morpholinomethyl)phenoxy)-1-(1-(3,4-dimethylphenyl)-7-(trifluoromethyl)-3,4-dihydroimidazo[1,2-a:5,4-c′]dipyridin-2(1H)-yl)ethan-1-one] | 23
Cc1ccc(C2c3c(nc4cc(C(F)(F)F)ccn34)CCN2C(=O)COc2cccnc2Cl)cc1C (centres unmarked) [Example 3.10.3, 2-((2-chloropyridin-3-yl)oxy)-1-(1-(3,4-dimethylphenyl)-7-(trifluoromethyl)-3,4-dihydroimidazo[1,2-a:5,4-c′]dipyridin-2(1H)-yl)ethan-1-one] | 239
COc1cc(C2c3c(nc4cc(C(F)(F)F)ccn34)CCN2C(=O)COc2ccc3ccccc3c2)ccc1O (centres unmarked) [Example 3.11.1, 1-(1-(4-hydroxy-3-methoxyphenyl)-7-(trifluoromethyl)-3,4-dihydroimidazo[1,2-a:5,4-c′]dipyridin-2(1H)-yl)-2-(naphthalen-2-yloxy)ethan-1-one] | 318
COc1ccc(C2c3c(nc4cc(C(F)(F)F)ccn34)CCN2C(=O)COc2ccc3ccccc3c2)cc1OC(F)F (centres unmarked) [Example 3.12.1, 1-(1-(3-(difluoromethoxy)-4-methoxyphenyl)-7-(trifluoromethyl)-3,4-dihydroimidazo[1,2-a:5,4-c′]dipyridin-2(1H)-yl)-2-(naphthalen-2-yloxy)ethan-1-one] | 41
COc1ccc(C2c3c(nc4cc(C(F)(F)F)ccn34)CCN2C(=O)COc2ccc3ccccc3c2)cc1OC(F)(F)F (centres unmarked) [Example 3.13.1, 1-(1-(4-methoxy-3-(trifluoromethoxy)phenyl)-7-(trifluoromethyl)-3,4-dihydroimidazo[1,2-a:5,4-c′]dipyridin-2(1H)-yl)-2-(naphthalen-2-yloxy)ethan-1-one] | 75
COc1cc(C2c3c(nc4cc(C(F)(F)F)ccn34)CCN2C(=O)COc2ccc3ccccc3c2)ccc1OC(F)F (centres unmarked) [Example 3.14.1, 1-(1-(4-(difluoromethoxy)-3-methoxyphenyl)-7-(trifluoromethyl)-3,4-dihydroimidazo[1,2-a:5,4-c′]dipyridin-2(1H)-yl)-2-(naphthalen-2-yloxy)ethan-1-one] | 106
COc1cc(C2c3c(nc4cc(C(F)(F)F)ccn34)CCN2C(=O)COc2ccc3ccccc3c2)ccc1OCCN(C)C (centres unmarked) [Example 3.15.1, 1-(1-(4-(2-(dimethylamino)ethoxy)-3-methoxyphenyl)-7-(trifluoromethyl)-3,4-dihydroimidazo[1,2-a:5,4-c′]dipyridin-2(1H)-yl)-2-(naphthalen-2-yloxy)ethan-1-one] | 70
O=C(COc1ccc2ccccc2c1)N1CCc2nc3cc(C(F)(F)F)ccn3c2C1c1ccc2c(c1)OCO2 (centres unmarked) [Example 3.16.1, 1-(1-(benzo[d][1,3]dioxol-5-yl)-7-(trifluoromethyl)-3,4-dihydroimidazo[1,2-a:5,4-c′]dipyridin-2(1H)-yl)-2-(naphthalen-2-yloxy)ethan-1-one] | 150
O=C(COc1ccc2ccccc2c1)N1CCc2nc3cc(C(F)(F)F)ccn3c2C1c1ccc2c(c1)OCCO2 (centres unmarked) [Example 3.17.1, 1-(1-(2,3-dihydrobenzo[b][1,4]dioxin-6-yl)-7-(trifluoromethyl)-3,4-dihydroimidazo[1,2-a:5,4-c′]dipyridin-2(1H)-yl)-2-(naphthalen-2-yloxy)ethan-1-one] | 138
COc1cc(F)c(C2c3c(nc4cc(C(F)(F)F)ccn34)CCN2C(=O)COc2ccc3ccccc3c2)cc1OC (centres unmarked) [Example 3.18.1, 1-(1-(2-fluoro-4,5-dimethoxyphenyl)-7-(trifluoromethyl)-3,4-dihydroimidazo[1,2-a:5,4-c′]dipyridin-2(1H)-yl)-2-(naphthalen-2-yloxy)ethan-1-one] | 5
COc1cc(F)c(C2c3c(nc4cc(C(F)(F)F)ccn34)CCN2C(=O)COc2ccc(CN3CCOCC3)cc2Cl)cc1OC (centres unmarked) [Example 3.18.2, 2-(2-chloro-4-(morpholinomethyl)phenoxy)-1-(1-(2-fluoro-4,5-dimethoxyphenyl)-7-(trifluoromethyl)-3,4-dihydroimidazo[1,2-a:5,4-c′]dipyridin-2(1H)-yl)ethan-1-one] | 5
COc1cc(F)c(C2c3c(nc4cc(C(F)(F)F)ccn34)CCN2C(=O)COc2ccc3c(c2)CN(C(=O)OC(C)(C)C)CC3)cc1OC (centres unmarked) [Example 3.18.3, tert-butyl 7-(2-(1-(2-fluoro-4,5-dimethoxyphenyl)-7-(trifluoromethyl)-3,4-dihydroimidazo[1,2-a:5,4-c′]dipyridin-2(1H)-yl)-2-oxoethoxy)-3,4-dihydroisoquinoline-2(1H)-carboxylate] | 9
COc1cc(F)c(C2c3c(nc4cc(C(F)(F)F)ccn34)CCN2C(=O)COc2ccc3c(c2)CNCC3)cc1OC (centres unmarked) [Example 3.18.4, 1-(1-(2-fluoro-4,5-dimethoxyphenyl)-7-(trifluoromethyl)-3,4-dihydroimidazo[1,2-a:5,4-c′]dipyridin-2(1H)-yl)-2-((1,2,3,4-tetrahydroisoquinolin-7-yl)oxy)ethan-1-one] | 72
COc1cc(F)c(C2c3c(nc4cc(C(F)(F)F)ccn34)CCN2C(=O)COc2ccc3c(c2)CN(C)CC3)cc1OC (centres unmarked) [Example 3.18.5, 1-(1-(2-fluoro-4,5-dimethoxyphenyl)-7-(trifluoromethyl)-3,4-dihydroimidazo[1,2-a:5,4-c′]dipyridin-2(1H)-yl)-2-((2-methyl-1,2,3,4-tetrahydroisoquinolin-7-yl)oxy)ethan-1-one] | 13
COc1cc(F)c(C2c3c(nc4cc(C(F)(F)F)ccn34)CCN2C(=O)COc2ccc3c(c2)CN(C(C)=O)CC3)cc1OC (centres unmarked) [Example 3.18.6, 2-((2-acetyl-1,2,3,4-tetrahydroisoquinolin-7-yl)oxy)-1-(1-(2-fluoro-4,5-dimethoxyphenyl)-7-(trifluoromethyl)-3,4-dihydroimidazo[1,2-a:5,4-c′]dipyridin-2(1H)-yl)ethan-1-one] | 6
COc1cc(F)c(C2c3c(nc4cc(C(F)(F)F)ccn34)CCN2C(=O)COc2ccc3c(c2)CN(C(=O)CO)CC3)cc1OC (centres unmarked) [Example 3.18.7, 1-(1-(2-fluoro-4,5-dimethoxyphenyl)-7-(trifluoromethyl)-3,4-dihydroimidazo[1,2-a:5,4-c′]dipyridin-2(1H)-yl)-2-((2-(2-hydroxyacetyl)-1,2,3,4-tetrahydroisoquinolin-7-yl)oxy)ethan-1-one] | 4
COc1cc(F)c(C2c3c(nc4cc(C(F)(F)F)ccn34)CCN2C(=O)COc2ccc(C3(N[S+]([O-])C(C)(C)C)COC3)cc2Cl)cc1OC (centres unmarked) [Example 3.18.8, N-(3-(3-chloro-4-(2-(1-(2-fluoro-4,5-dimethoxyphenyl)-7-(trifluoromethyl)-3,4-dihydroimidazo[1,2-a:5,4-c′]dipyridin-2(1H)-yl)-2-oxoethoxy)phenyl)oxetan-3-yl)-2-methylpropane-2-sulfinamide] | 48
COc1cc(F)c(C2c3c(nc4cc(C(F)(F)F)ccn34)CCN2C(=O)COc2ccc(C3(N)COC3)cc2Cl)cc1OC (centres unmarked) [Example 3.18.9, 2-(4-(3-aminooxetan-3-yl)-2-chlorophenoxy)-1-(1-(2-fluoro-4,5-dimethoxyphenyl)-7-(trifluoromethyl)-3,4-dihydroimidazo[1,2-a:5,4-c′]dipyridin-2(1H)-yl)ethan-1-one] | 10
